# ChEMBL document CHEMBL1154960, “Development of improved inhibitors of wall teichoic acid biosynthesis with potent activity against Staphylococcus aureus” (Bioorg Med Chem Lett, 2010)
# The source made the active and inactive calls. The rule behind the calls is not given here.
# What was measured:
# Format in all cases: functional
# [1] = test system: Staphylococcus aureus; experiment: Antibacterial activity against tarO deficient Staphylococcus aureus RN4220 assessed as cell survival at 100 uM after 12 hrs by optical density plate reader method; conditions: RN4220, 12 h
# [2] = test system: Staphylococcus aureus; experiment: Antibacterial activity against Staphylococcus aureus RN4220 assessed as cell survival at 100 uM after 12 hrs by optical density plate reader method; conditions: RN4220, 12 h
# [3] = test system: Staphylococcus aureus; experiment: Antibacterial activity against tarO deficient Staphylococcus aureus RN4220 assessed as growth inhibition at 100 uM after 12 hrs by optical density plate reader method
structure (smiles),measurement,setting,value
Cn1c(=O)c2c(-c3ccccc3)n3c(c2n(C)c1=O)C(c1ccc([N+](=O)[O-])cc1)Nc1ccccc1-3 (centres undefined),survival at 100 µM,[1],73%
same,survival at 100 µM,[2],49%
COc1ccc(-c2c3c(=O)n(C)c(=O)n(C)c3c3n2-c2ccccc2NC3c2ccc(OC)cc2)cc1 (centres undefined),survival at 100 µM,[1],88%
same,survival at 100 µM,[2],93%
CCOC(=O)C1CCCN(c2nc3c(S(=O)(=O)c4ccccc4)nnn3c3ccccc23)C1 (centres undefined),Activity,[3],inactive
Cc1ccc(C)c(N2CCN(c3nc4c(S(=O)(=O)c5ccccc5)nnn4c4ccc(Cl)cc34)CC2)c1,Activity,[3],inactive
CC1CCN(c2nc3c(S(=O)(=O)c4ccccc4)nnn3c3ccc(Cl)cc23)CC1,Activity,[3],inactive
O=S(=O)(c1ccccc1)c1nnn2c1nc(N1CCN(c3ccccc3)CC1)c1cc(Cl)ccc12,Activity,[3],inactive
COc1ccc(Nc2nc3c(S(=O)(=O)c4ccccc4)nnn3c3ccc(Cl)cc23)cc1OC,Activity,[3],inactive
COc1ccc(Nc2nc3c(S(=O)(=O)c4ccccc4)nnn3c3ccc(Cl)cc23)cc1,Activity,[3],inactive
Cn1c(=O)c2c(-c3ccccc3)n3c(c2n(C)c1=O)C(c1ccccc1[N+](=O)[O-])Nc1ccccc1-3 (centres undefined),survival at 100 µM,[1],86%
same,survival at 100 µM,[2],79%
CCc1ccc(S(=O)(=O)c2nnn3c2nc(N2CCN(c4ccccc4)CC2)c2cc(Cl)ccc23)cc1,Activity,[3],inactive
Cc1ccc(C)c(S(=O)(=O)c2nnn3c2nc(NCCC(C)C)c2ccccc23)c1,Activity,[3],inactive
Cc1ccc(-c2c3c(=O)n(C)c(=O)n(C)c3c3n2-c2ccccc2NC3c2ccc(C#N)cc2)cc1 (centres undefined),survival at 100 µM,[1],81%
same,survival at 100 µM,[2],95%
Cn1c(=O)c2c(-c3ccccc3)n3c(c2n(C)c1=O)C(c1ccco1)Nc1ccccc1-3 (centres undefined),survival at 100 µM,[1],98%
same,survival at 100 µM,[2],100%
CCc1ccc(S(=O)(=O)c2nnn3c2nc(NC(C)C)c2cc(Cl)ccc23)cc1,Activity,[3],inactive
Cc1ccc(C2Nc3cc(C)c(C)cc3-n3c(-c4ccccc4)c4c(=O)n(C)c(=O)n(C)c4c32)o1 (centres undefined),survival at 100 µM,[1],92%
same,survival at 100 µM,[2],95%
Cc1ccc(S(=O)(=O)c2nnn3c2nc(NCCC(C)C)c2cc(Cl)ccc23)cc1C,Activity,[3],inactive
CCN(Cc1ccccc1)c1nc2c(S(=O)(=O)c3ccccc3)nnn2c2ccc(Cl)cc12,Activity,[3],inactive
COc1ccc(Nc2nc3c(S(=O)(=O)c4ccccc4)nnn3c3ccc(Cl)cc23)c(OC)c1,Activity,[3],inactive
CC(=O)c1ccc(Nc2nc3c(S(=O)(=O)c4ccccc4)nnn3c3ccc(Cl)cc23)cc1,Activity,[3],inactive
CCOC(=O)C1CCCN(c2nc3c(S(=O)(=O)c4ccc(CC)cc4)nnn3c3ccc(Cl)cc23)C1 (centres undefined),Activity,[3],inactive
CCN(CC)c1nc2c(S(=O)(=O)c3ccccc3)nnn2c2ccccc12,Activity,[3],inactive
CC(=O)c1ccc(N2CCN(c3nc4c(S(=O)(=O)c5ccc(C)c(C)c5)nnn4c4ccc(Cl)cc34)CC2)cc1,Activity,[3],inactive
NC(=O)C1CCN(c2nc3c(S(=O)(=O)c4ccc(Br)cc4)nnn3c3ccccc23)CC1,Activity,[3],inactive
c1ccc(-c2nnn3c2nc(N2CCOCC2)c2ccccc23)cc1,Activity,[3],inactive
CCc1ccc(S(=O)(=O)c2nnn3c2nc(Nc2cc(OC)cc(OC)c2)c2cc(Cl)ccc23)cc1,Activity,[3],inactive
Cc1ccc(C)c(S(=O)(=O)c2nnn3c2nc(Nc2ccc(C)c(C)c2)c2ccccc23)c1,Activity,[3],inactive
Cc1ccc(S(=O)(=O)c2nnn3c2nc(N2CCN(c4cccc(C)c4C)CC2)c2ccccc23)cc1C,Activity,[3],inactive
Nc1nc2c(C(=O)N3CCOCC3)nnn2c2ccccc12,Activity,[3],inactive
Cc1ccc(N2CCN(c3nc4c(S(=O)(=O)c5ccc(C)c(C)c5)nnn4c4ccccc34)CC2)c(C)c1,Activity,[3],inactive
CCc1ccc(S(=O)(=O)c2nnn3c2nc(N2CCC(C)CC2)c2cc(Cl)ccc23)cc1,Activity,[3],inactive
Cc1ccc(CNc2nc3c(S(=O)(=O)c4cc(C)ccc4C)nnn3c3ccccc23)cc1,Activity,[3],inactive
O=S(=O)(c1ccccc1)c1nnn2c1nc(N1CCCC1)c1cc(Cl)ccc12,Activity,[3],inactive
O=C1CCCN1CCCNc1nc2c(S(=O)(=O)c3ccc(Br)cc3)nnn2c2ccccc12,Activity,[3],inactive
Cc1ccc(S(=O)(=O)c2nnn3c2nc(N2CCC(C)CC2)c2cc(Cl)ccc23)cc1C,Activity,[3],inactive
CC(=O)c1ccccc1N1CCN(c2nc3c(S(=O)(=O)c4ccccc4)nnn3c3ccc(Cl)cc23)CC1,Activity,[3],inactive
COCCCNc1nc2c(S(=O)(=O)c3ccccc3)nnn2c2ccc(Cl)cc12,Activity,[3],inactive
O=S(=O)(c1ccccc1)c1nnn2c1nc(NCc1ccccc1)c1cc(Cl)ccc12,Activity,[3],inactive
Cc1ccc(CNc2nc3c(S(=O)(=O)c4ccc(C)c(C)c4)nnn3c3ccc(Cl)cc23)cc1,Activity,[3],inactive
CN(Cc1ccccc1)c1nc2c(S(=O)(=O)c3ccccc3)nnn2c2ccccc12,Activity,[3],inactive
CCOCCCNc1nc2c(S(=O)(=O)c3ccc(CC)cc3)nnn2c2ccc(Cl)cc12,Activity,[3],inactive
CCOC(=O)C1CCN(c2nc3c(S(=O)(=O)c4ccc(C)c(C)c4)nnn3c3ccc(Cl)cc23)CC1,Activity,[3],inactive
CCOC(=O)C1CCN(c2nc3c(S(=O)(=O)c4ccccc4)nnn3c3ccc(Cl)cc23)CC1,Activity,[3],inactive
CCc1ccc(S(=O)(=O)c2nnn3c2nc(N(CC)Cc2ccccc2)c2cc(Cl)ccc23)cc1,Activity,[3],inactive
O=S(=O)(c1ccccc1)c1nnn2c1nc(Cl)c1ccccc12,Activity,[3],inactive
Cc1ccc(S(=O)(=O)c2nnn3c2nc(N2CCCC(C)C2)c2cc(Cl)ccc23)cc1C (centres undefined),Activity,[3],inactive
CCOC(=O)c1nnn2c1nc(N(CC)CC)c1ccccc12,Activity,[3],inactive
O=C(Nc1ccc(Nc2nc3c(S(=O)(=O)c4ccc(Br)cc4)nnn3c3ccccc23)cc1)c1ccco1,Activity,[3],inactive
COc1cc(Nc2nc3c(S(=O)(=O)c4ccccc4)nnn3c3ccc(Cl)cc23)cc(OC)c1,Activity,[3],inactive
Cc1ccc(S(=O)(=O)c2nnn3c2nc(N2CCN(c4ccccc4F)CC2)c2cc(Cl)ccc23)cc1C,Activity,[3],inactive
CC(=O)NCCNc1nc2c(S(=O)(=O)c3ccc(C)c(C)c3)nnn2c2ccc(Cl)cc12,Activity,[3],inactive
CC(=O)NCCNc1nc2c(-c3ccccc3)nnn2c2ccccc12,Activity,[3],inactive
CC(=O)c1ccc(Nc2nc3c(S(=O)(=O)c4ccc(C)c(C)c4)nnn3c3ccccc23)cc1,Activity,[3],inactive
Cc1ccc(S(=O)(=O)c2nnn3c2nc(NC(C)C)c2cc(Cl)ccc23)cc1C,Activity,[3],inactive
CCc1ccc(S(=O)(=O)c2nnn3c2nc(NCc2cccc(OC)c2)c2cc(Cl)ccc23)cc1,Activity,[3],inactive
COc1ccccc1Nc1nc2c(S(=O)(=O)c3c(C)cc(C)cc3C)nnn2c2ccccc12,Activity,[3],inactive
COc1ccc(CNc2nc3c(S(=O)(=O)c4ccccc4)nnn3c3ccc(Cl)cc23)cc1,Activity,[3],inactive
Cc1ccc(S(=O)(=O)c2nnn3c2nc(NCC2CCCO2)c2ccccc23)cc1 (centres undefined),Activity,[3],inactive
CCOc1ccc(Nc2nc3c(S(=O)(=O)c4ccc(CC)cc4)nnn3c3ccc(Cl)cc23)cc1,Activity,[3],inactive
Cc1ccc(S(=O)(=O)c2nnn3c2nc(N2CCCC2)c2ccccc23)cc1,Activity,[3],inactive
Cc1ccc(S(=O)(=O)c2nnn3c2nc(N2CCN(c4ccccc4F)CC2)c2ccccc23)cc1C,Activity,[3],inactive
CCc1ccc(S(=O)(=O)c2nnn3c2nc(N2CCC(C(N)=O)CC2)c2cc(Cl)ccc23)cc1,Activity,[3],inactive
COc1ccccc1N1CCN(c2nc3c(S(=O)(=O)c4ccc(C)c(C)c4)nnn3c3ccc(Cl)cc23)CC1,Activity,[3],inactive
Cc1ccc(Nc2nc3c(S(=O)(=O)c4ccccc4)nnn3c3ccc(Cl)cc23)c(C)c1,Activity,[3],inactive
COCCNc1nc2c(S(=O)(=O)c3ccccc3)nnn2c2ccc(Cl)cc12,Activity,[3],inactive
COc1ccccc1CNc1nc2c(S(=O)(=O)c3ccccc3)nnn2c2ccc(Cl)cc12,Activity,[3],inactive
COc1ccccc1CNc1nc2c(S(=O)(=O)c3ccc(C)c(C)c3)nnn2c2ccc(Cl)cc12,Activity,[3],inactive
Cc1ccc(S(=O)(=O)c2nnn3c2nc(N2CCN(c4ccc(F)cc4)CC2)c2cc(Cl)ccc23)cc1C,Activity,[3],inactive
CCOC(=O)C1CCCN(c2nc3c(S(=O)(=O)c4ccc(C)c(C)c4)nnn3c3ccc(Cl)cc23)C1 (centres undefined),Activity,[3],inactive
COCCCNc1nc2c(S(=O)(=O)c3ccc(C)c(C)c3)nnn2c2ccc(Cl)cc12,Activity,[3],inactive
CCOC(=O)C1CCN(c2nc3c(S(=O)(=O)c4ccc(CC)cc4)nnn3c3ccc(Cl)cc23)CC1,Activity,[3],inactive
CCc1ccc(S(=O)(=O)c2nnn3c2nc(N(C)Cc2ccccc2)c2cc(Cl)ccc23)cc1,Activity,[3],inactive
CSc1cccc(Nc2nc3c(S(=O)(=O)c4ccccc4)nnn3c3ccc(Cl)cc23)c1,Activity,[3],inactive
O=S(=O)(c1ccc(Cl)cc1)c1nnn2c1nc(Cl)c1ccccc12,Activity,[3],inactive
CCc1ccc(S(=O)(=O)c2nnn3c2nc(NCc2ccccc2OC)c2cc(Cl)ccc23)cc1,Activity,[3],inactive
CCc1ccc(S(=O)(=O)c2nnn3c2nc(NCCC(C)C)c2cc(Cl)ccc23)cc1,Activity,[3],inactive
COc1ccccc1N1CCN(c2nc3c(S(=O)(=O)c4ccccc4)nnn3c3ccc(Cl)cc23)CC1,Activity,[3],inactive
CCN(Cc1ccccc1)c1nc2c(S(=O)(=O)c3ccc(C)c(C)c3)nnn2c2ccc(Cl)cc12,Activity,[3],inactive
CCc1ccc(S(=O)(=O)c2nnn3c2nc(NCCNC(C)=O)c2cc(Cl)ccc23)cc1,Activity,[3],inactive
CCc1ccc(S(=O)(=O)c2nnn3c2nc(N2CCCC(C)C2)c2cc(Cl)ccc23)cc1 (centres undefined),Activity,[3],inactive
O=S(=O)(c1ccccc1)c1nnn2c1nc(Nc1ccccc1)c1cc(Cl)ccc12,Activity,[3],inactive
Cc1ccc(S(=O)(=O)c2nnn3c2nc(N2CCC(C(N)=O)CC2)c2cc(Cl)ccc23)cc1C,Activity,[3],inactive
CCc1ccc(S(=O)(=O)c2nnn3c2nc(NCc2ccccc2)c2cc(Cl)ccc23)cc1,Activity,[3],inactive
CCc1ccc(S(=O)(=O)c2nnn3c2nc(Nc2ccc(F)cc2)c2cc(Cl)ccc23)cc1,Activity,[3],inactive
